Each structure is given as a SMILES string.

The target of assay [1] is intracellular GCN2 (phosphorylation of the GCN2 substrate eIF2α) (Homo sapiens (Human), UniProt Q9P2K8). The experiment in a line: GCN2 Cellular Inhibition Assay (AlphaScreen SureFire P-eIF2α Ser51, borrelidin-treated U2OS cells). Format: cell-based. The settings on record: 10 μM borrelidin, 1 h, phosphorylated eIF2α Ser51, read-out: GCN2 Biomarker (IC50). Put shortly:
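Phospho-eIF2α (Ser51) measured by AlphaScreen SureFire in lysates of U2OS cells stimulated 1 h at 37 °C with 10 μM borrelidin alongside compound, 4-fold dilutions from 40 μM. Inhibition expressed as percent relative to borrelidin-alone controls.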
For orientation: In Alpha technology, singlet oxygen from a donor bead excites a nearby acceptor bead.

The target of a further assay is GCN2 kinase (Homo sapiens (Human), UniProt Q9P2K8). The experiment in a line: GCN2 Enzyme Inhibition Assay (Transcreener ADP2 fluorescence polarization). Format: biochemical. The settings on record: 280 μM ATP, 200 μM (RS)7 peptide, 4 nM GCN2, 25° C. The gist of the method:
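At 25 °C, GCN2 kinase (typical final concentration 4 nM) and (RS)7 peptide in Tris-HCl pH 7.5 buffer with MgCl2, NaCl and DTT were preincubated with compound for 10 min, then ATP was added for a 1 h reaction. ADP was read by FP with antibody/Alexa633 tracer. Non-linear tight-binding analysis gave IC50 and apparent Ki.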
In general terms: Polarisation of emitted light reports the rotation of a fluorescent probe.

Sequence of intracellular GCN2 (phosphorylation of the GCN2 substrate eIF2α) (Q9P2K8 whole entry): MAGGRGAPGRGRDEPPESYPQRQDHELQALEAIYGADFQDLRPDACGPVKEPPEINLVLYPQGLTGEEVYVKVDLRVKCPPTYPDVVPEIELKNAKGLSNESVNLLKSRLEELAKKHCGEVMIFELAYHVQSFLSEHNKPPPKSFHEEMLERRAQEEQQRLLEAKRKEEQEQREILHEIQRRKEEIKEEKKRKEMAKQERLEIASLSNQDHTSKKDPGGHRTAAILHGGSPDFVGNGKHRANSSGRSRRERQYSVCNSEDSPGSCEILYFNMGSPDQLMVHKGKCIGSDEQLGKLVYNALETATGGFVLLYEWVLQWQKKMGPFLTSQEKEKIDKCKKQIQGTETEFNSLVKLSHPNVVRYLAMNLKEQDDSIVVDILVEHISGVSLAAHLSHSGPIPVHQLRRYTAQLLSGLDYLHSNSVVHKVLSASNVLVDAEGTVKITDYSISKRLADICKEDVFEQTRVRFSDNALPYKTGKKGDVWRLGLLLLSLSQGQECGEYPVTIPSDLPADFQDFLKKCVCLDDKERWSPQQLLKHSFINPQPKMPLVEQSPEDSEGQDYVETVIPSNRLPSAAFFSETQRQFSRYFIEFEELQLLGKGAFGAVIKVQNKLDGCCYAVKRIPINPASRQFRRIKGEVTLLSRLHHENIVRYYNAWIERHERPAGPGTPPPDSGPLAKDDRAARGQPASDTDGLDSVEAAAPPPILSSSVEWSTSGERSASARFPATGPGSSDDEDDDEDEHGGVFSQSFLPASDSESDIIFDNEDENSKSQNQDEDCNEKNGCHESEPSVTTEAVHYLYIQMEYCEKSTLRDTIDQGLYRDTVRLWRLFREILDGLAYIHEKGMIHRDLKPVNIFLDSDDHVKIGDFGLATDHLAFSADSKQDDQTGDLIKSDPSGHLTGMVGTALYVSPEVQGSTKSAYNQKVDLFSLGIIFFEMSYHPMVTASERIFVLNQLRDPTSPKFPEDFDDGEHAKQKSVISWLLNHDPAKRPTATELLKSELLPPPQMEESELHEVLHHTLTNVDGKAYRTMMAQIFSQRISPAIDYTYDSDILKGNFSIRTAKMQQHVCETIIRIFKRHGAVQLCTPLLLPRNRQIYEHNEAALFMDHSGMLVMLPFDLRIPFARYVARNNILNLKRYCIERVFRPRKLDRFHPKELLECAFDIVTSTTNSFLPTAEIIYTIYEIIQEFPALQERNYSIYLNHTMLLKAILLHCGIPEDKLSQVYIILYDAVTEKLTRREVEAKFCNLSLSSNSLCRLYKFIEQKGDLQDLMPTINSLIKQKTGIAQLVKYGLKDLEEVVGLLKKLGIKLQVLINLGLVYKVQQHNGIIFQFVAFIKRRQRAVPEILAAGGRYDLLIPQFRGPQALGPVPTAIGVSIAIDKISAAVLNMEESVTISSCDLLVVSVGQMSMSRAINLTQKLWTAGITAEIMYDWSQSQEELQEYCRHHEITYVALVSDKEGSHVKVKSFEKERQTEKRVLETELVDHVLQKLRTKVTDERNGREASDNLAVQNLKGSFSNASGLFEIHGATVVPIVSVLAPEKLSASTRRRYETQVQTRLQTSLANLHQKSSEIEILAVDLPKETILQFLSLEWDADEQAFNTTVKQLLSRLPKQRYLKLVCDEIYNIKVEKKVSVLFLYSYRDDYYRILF
Sequence of GCN2 kinase (Q9P2K8 whole entry): as above

Usually IC50 stands for the midpoint of a concentration-inhibition curve. Consider `CC1(C)C[C@@H]1CN1CCN(c2ccnc(-c3cnc4ccc(C(F)(F)F)cn34)n2)C[C@@H]1c1cn[nH]c1` [I-527, 3-(4-((S)-4-(((S)-2,2-dimethylcyclopropyl)methyl)-3-(1H-pyrazol-4-yl)piperazin-1-yl)pyrimidin-2-yl)-6-(trifluoromethyl)imidazo[1,2-a]pyridine], for which the 50% inhibitory concentration (IC50) in assay [1] lay within 500 to 5000 nM; on GCN2 kinase, 10 to 100 nM.

With `CC1(C)C[C@H]1CN1CCN(c2ccnc(-c3cnc4ccc(C(F)(F)F)cn34)n2)C[C@@H]1c1cn[nH]c1` [I-528, 3-(4-((S)-4-(((R)-2,2-dimethylcyclopropyl)methyl)-3-(1H-pyrazol-4-yl)piperazin-1-yl)pyrimidin-2-yl)-6-(trifluoromethyl)imidazo[1,2-a]pyridine], the IC50 is < 500 nM in assay [1] and 10 to 100 nM on GCN2 kinase.

Regarding `CC1(C)C[C@@H]1CN1CCN(c2ccnc(-c3cnc4ccc(C(F)(F)F)cn34)n2)C[C@H]1c1cn[nH]c1` [I-529, 3-(4-((R)-4-(((S)-2,2-dimethylcyclopropyl)methyl)-3-(1H-pyrazol-4-yl)piperazin-1-yl)pyrimidin-2-yl)-6-(trifluoromethyl)imidazo[1,2-a]pyridine], the figures for the IC50 (in assay [1]; on GCN2 kinase) were < 500 nM and < 10 nM, respectively.

Regarding `CC1C(CNS(C)(=O)=O)N(C2COC2)CCN1c1ccnc(-c2cnc3ccc(C(F)F)cn23)n1` (stereo not shown) [I-530, N-((4-(2-(6-(difluoromethyl)imidazo[1,2-a]pyridin-3-yl)pyrimidin-4-yl)-3-methyl-1-(oxetan-3-yl)piperazin-2-yl)methyl)methanesulfonamide], the values for the IC50 (in assay [1]; at GCN2 kinase) were 500 to 5000 nM and 10 to 100 nM, respectively.

Turning to `CS(=O)(=O)NC1CC(C(F)(F)F)CN(c2ccnc(-c3cnc4ccc(C(F)F)cn34)n2)C1` (stereo not shown) [I-531, N-(1-(2-(6-(difluoromethyl)imidazo[1,2-a]pyridin-3-yl)pyrimidin-4-yl)-5-(trifluoromethyl)piperidin-3-yl)methanesulfonamide], the IC50 is < 500 nM in assay [1] and 10 to 100 nM at GCN2 kinase.

Consider `FC(F)(F)c1ccc2ncc(-c3nccc(N4CCN[C@H](c5cn[nH]c5)C4)n3)n2c1` [I-532, (R)-3-(4-(3-(1H-pyrazol-4-yl)piperazin-1-yl)pyrimidin-2-yl)-6-(trifluoromethyl)imidazo[1,2-a]pyridine], for which the half-inhibitory concentration (IC50) in assay [1] lay in the range of 500 to 5000 nM; on GCN2 kinase it was 10 to 100 nM.

Turning to `FC(F)(F)c1ccc2ncc(-c3nccc(N4CCN[C@@H](c5cn[nH]c5)C4)n3)n2c1` [I-533, (S)-3-(4-(3-(1H-pyrazol-4-yl)piperazin-1-yl)pyrimidin-2-yl)-6-(trifluoromethyl)imidazo[1,2-a]pyridine], the 50% inhibitory concentration (IC50) was < 500 nM in assay [1] and < 10 nM against GCN2 kinase.

Take `C[C@@H]1[C@@H](c2cn[nH]c2)NCCN1c1ccnc(-c2cnc3ccc(C(F)(F)F)cn23)n1` [I-536, 3-(4-((2R,3R)-2-methyl-3-(1H-pyrazol-4-yl)piperazin-1-yl)pyrimidin-2-yl)-6-(trifluoromethyl)imidazo[1,2-a]pyridine]: the results for the IC50 (in assay [1]; against GCN2 kinase) were 500 to 5000 nM and 100 to 1000 nM, respectively.

As for `C[C@@H]1[C@H](c2cn[nH]c2)NCCN1c1ccnc(-c2cnc3ccc(C(F)(F)F)cn23)n1` [I-537, 4-[(2R,3 S)-2-methyl-3-(1H-pyrazol-4-yl)piperazin-1-yl]-2-[6-(trifluoromethyl)imidazo[1,2-a]pyridin-3-yl]pyrimidine], the IC50 is < 500 nM in assay [1] and < 10 nM at GCN2 kinase.

Regarding `Cc1[nH]ncc1[C@@H]1CN(c2ccnc(-c3cnc4cc(F)c(Cl)cn34)n2)C[C@@H](C)O1` [I-538, (2R,6R)-4-(2-(6-chloro-7-fluoroimidazo[1,2-a]pyridin-3-yl)pyrimidin-4-yl)-2-methyl-6-(5-methyl-1H-pyrazol-4-yl)morpholine], the figures for the IC50 (in assay [1]; against GCN2 kinase) were 500 to 5000 nM and 10 to 100 nM, respectively.

As to `Cc1[nH]ncc1[C@H]1CN(c2ccnc(-c3cnc4cc(F)c(Cl)cn34)n2)C[C@@H](C)O1` [I-540, (2R,6S)-4-(2-(6-chloro-7-fluoroimidazo[1,2-a]pyridin-3-yl)pyrimidin-4-yl)-2-methyl-6-(5-methyl-1H-pyrazol-4-yl)morpholine], the IC50 in assay [1] was < 500 nM; against GCN2 kinase it was < 10 nM.

Values taken from US10793563B2, “GCN2 inhibitors and uses thereof” (Merck Patent GmbH, priority 2018, dated 2020).
